In PubChem BioAssay (NCI):
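Here, GI50 denotes the concentration required for 50% inhibition of growth. TGI: concentration producing complete growth inhibition.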

Experiments:
Experiment in all cases: DTP human tumour cell line panel, 384-well format
U251 glioblastoma = tested on: U251 glioblastoma
HOP-92 NSCLC = tested on: HOP-92 NSCLC
ACHN renal = tested on: ACHN renal
MALME-3M melanoma = tested on: MALME-3M melanoma
A498 renal = tested on: A498 renal
SK-OV-3 ovarian = tested on: SK-OV-3 ovarian
786-0 renal = tested on: 786-0 renal
EKVX NSCLC = tested on: EKVX NSCLC
HOP-62 NSCLC = tested on: HOP-62 NSCLC
A549 NSCLC = tested on: A549 NSCLC
TK-10 renal = tested on: TK-10 renal
CAKI-1 renal = tested on: CAKI-1 renal
UACC-62 melanoma = tested on: UACC-62 melanoma
K-562 leukemia = tested on: K-562 leukemia
OVCAR-5 ovarian = tested on: OVCAR-5 ovarian
HL-60(TB) leukemia = tested on: HL-60(TB) leukemia
HS 578T breast = tested on: HS 578T breast
MDA-MB-435 melanoma = tested on: MDA-MB-435 melanoma
HT29 colon = tested on: HT29 colon
HCT-116 colon = tested on: HCT-116 colon
CCRF-CEM leukemia = tested on: CCRF-CEM leukemia
SF-539 CNS = tested on: SF-539 CNS
SW-620 colon = tested on: SW-620 colon
T-47D breast = tested on: T-47D breast
RXF 393 renal = tested on: RXF 393 renal
SR leukemia = tested on: SR leukemia
DU-145 prostate = tested on: DU-145 prostate
SN12C renal = tested on: SN12C renal
SK-MEL-5 melanoma = tested on: SK-MEL-5 melanoma
UACC-257 melanoma = tested on: UACC-257 melanoma
HCT-15 colon = tested on: HCT-15 colon
COLO 205 colon = tested on: COLO 205 colon
RPMI-8226 leukemia = tested on: RPMI-8226 leukemia
MOLT-4 leukemia = tested on: MOLT-4 leukemia
SNB-19 CNS = tested on: SNB-19 CNS
SF-295 CNS = tested on: SF-295 CNS
PC-3 prostate = tested on: PC-3 prostate
MDA-MB-468 breast = tested on: MDA-MB-468 breast
OVCAR-8 ovarian = tested on: OVCAR-8 ovarian
SF-268 CNS = tested on: SF-268 CNS
NCI-H460 NSCLC = tested on: NCI-H460 NSCLC
UO-31 renal = tested on: UO-31 renal
OVCAR-4 ovarian = tested on: OVCAR-4 ovarian
SNB-75 CNS = tested on: SNB-75 CNS
MDA-MB-231 breast = tested on: MDA-MB-231 breast
NCI-H226 lung = tested on: NCI-H226 lung
SK-MEL-2 melanoma = tested on: SK-MEL-2 melanoma
IGROV1 ovarian = tested on: IGROV1 ovarian
NCI-H322M lung = tested on: NCI-H322M lung
MCF7 breast = tested on: MCF7 breast
HCC-2998 colon = tested on: HCC-2998 colon
SK-MEL-28 melanoma = tested on: SK-MEL-28 melanoma
KM12 colon = tested on: KM12 colon
BT-549 breast = tested on: BT-549 breast
LOX IMVI melanoma = tested on: LOX IMVI melanoma
NCI-H522 lung = tested on: NCI-H522 lung
NCI/ADR-RES ovarian = tested on: NCI/ADR-RES ovarian
OVCAR-3 ovarian = tested on: OVCAR-3 ovarian

CCOc1cc(-c2nncn2C)ccc1Nc1ncc2cc(C)nc(NCC(C)(C)C)c2n1
GI50 (U251 glioblastoma): 0.46 µM
TGI (U251 glioblastoma): > 100 µM
GI50 (HOP-92 NSCLC): > 100 µM
TGI (HOP-92 NSCLC): > 100 µM
GI50 (ACHN renal): 1.77 µM
TGI (ACHN renal): > 100 µM
GI50 (MALME-3M melanoma): 37.1 µM
TGI (MALME-3M melanoma): > 100 µM
GI50 (A498 renal): 0.548 µM
TGI (A498 renal): > 100 µM
GI50 (SK-OV-3 ovarian): > 100 µM
TGI (SK-OV-3 ovarian): > 100 µM
GI50 ([…]-0 renal): 0.468 µM
TGI (786-0 renal): > 100 µM
GI50 (EKVX NSCLC): 2.05 µM
TGI (EKVX NSCLC): > 100 µM
GI50 (HOP-62 NSCLC): 0.23 µM
TGI (HOP-62 NSCLC): > 100 µM
GI50 (A549 NSCLC): 0.0992 µM
TGI (A549 NSCLC): > 100 µM
GI50 (TK-10 renal): 3.89 µM
TGI (TK-10 renal): > 100 µM
GI50 (CAKI-1 renal): > 100 µM
TGI (CAKI-1 renal): > 100 µM
GI50 (UACC-62 melanoma): > 100 µM
TGI (UACC-62 melanoma): > 100 µM
GI50 (K-562 leukemia): 0.918 µM
TGI (K-562 leukemia): > 100 µM
GI50 (OVCAR-5 ovarian): 1.33 µM
TGI (OVCAR-5 ovarian): > 100 µM
GI50 (HL-60(TB) leukemia): 0.266 µM
TGI (HL-60(TB) leukemia): 0.587 µM
GI50 (HS 578T breast): 0.188 µM
TGI (HS 578T breast): > 100 µM
GI50 (MDA-MB-435 melanoma): > 100 µM
TGI (MDA-MB-435 melanoma): > 100 µM
GI50 (HT29 colon): > 100 µM
TGI (HT29 colon): > 100 µM
GI50 (HCT-116 colon): 0.062 µM
TGI (HCT-116 colon): > 100 µM
GI50 (CCRF-CEM leukemia): 0.0772 µM
TGI (CCRF-CEM leukemia): 0.278 µM
GI50 (SF-539 CNS): 0.351 µM
TGI (SF-539 CNS): > 100 µM
GI50 (SW-620 colon): 0.304 µM
TGI (SW-620 colon): > 100 µM
GI50 (T-47D breast): 7.93 µM
TGI (T-47D breast): > 100 µM
GI50 (RXF 393 renal): 1.34 µM
TGI (RXF 393 renal): 99.1 µM
GI50 (SR leukemia): 0.139 µM
TGI (SR leukemia): 0.333 µM
GI50 (DU-145 prostate): 0.365 µM
TGI (DU-145 prostate): > 100 µM
GI50 (SN12C renal): > 100 µM
TGI (SN12C renal): > 100 µM
GI50 (SK-MEL-5 melanoma): 0.461 µM
TGI (SK-MEL-5 melanoma): > 100 µM
GI50 (UACC-257 melanoma): > 100 µM
TGI (UACC-257 melanoma): > 100 µM
GI50 (HCT-15 colon): 0.0738 µM
TGI (HCT-15 colon): > 100 µM
GI50 (COLO 205 colon): 0.196 µM
TGI (COLO 205 colon): > 100 µM
GI50 (RPMI-8226 leukemia): 0.3 µM
TGI (RPMI-8226 leukemia): 3.77 µM
GI50 (MOLT-4 leukemia): 0.0223 µM
TGI (MOLT-4 leukemia): 0.0463 µM
GI50 (SNB-19 CNS): 86.7 µM
TGI (SNB-19 CNS): > 100 µM
GI50 (SF-295 CNS): > 100 µM
TGI (SF-295 CNS): > 100 µM
GI50 (PC-3 prostate): 18 µM
TGI (PC-3 prostate): > 100 µM
GI50 (MDA-MB-468 breast): 0.578 µM
TGI (MDA-MB-468 breast): 7.02 µM
GI50 (OVCAR-8 ovarian): 0.377 µM
TGI (OVCAR-8 ovarian): > 100 µM
GI50 (SF-268 CNS): 10.5 µM
TGI (SF-268 CNS): > 100 µM
GI50 (NCI-H460 NSCLC): 0.169 µM
TGI (NCI-H460 NSCLC): > 100 µM
GI50 (UO-31 renal): 0.514 µM
TGI (UO-31 renal): > 100 µM
GI50 (OVCAR-4 ovarian): > 100 µM
TGI (OVCAR-4 ovarian): > 100 µM
GI50 (SNB-75 CNS): > 100 µM
TGI (SNB-75 CNS): > 100 µM
GI50 (MDA-MB-231 breast): 47.8 µM
TGI (MDA-MB-231 breast): > 100 µM
GI50 (NCI-H226 lung): 15.9 µM
TGI (NCI-H226 lung): > 100 µM
GI50 (SK-MEL-2 melanoma): > 100 µM
TGI (SK-MEL-2 melanoma): > 100 µM
GI50 (IGROV1 ovarian): > 100 µM
TGI (IGROV1 ovarian): > 100 µM
GI50 (NCI-H322M lung): > 100 µM
TGI (NCI-H322M lung): > 100 µM
TGI (MCF7 breast): > 100 µM
GI50 (HCC-2998 colon): > 100 µM
TGI (HCC-2998 colon): > 100 µM
GI50 (SK-MEL-28 melanoma): > 100 µM
TGI (SK-MEL-28 melanoma): > 100 µM
GI50 (KM12 colon): 0.0967 µM
TGI (KM12 colon): > 100 µM
GI50 (BT-549 breast): 0.85 µM
TGI (BT-549 breast): > 100 µM
GI50 (LOX IMVI melanoma): 0.179 µM
TGI (LOX IMVI melanoma): > 100 µM
GI50 (NCI-H522 lung): 0.669 µM
TGI (NCI-H522 lung): > 100 µM
GI50 (NCI/ADR-RES ovarian): 0.618 µM
TGI (NCI/ADR-RES ovarian): > 100 µM
GI50 (OVCAR-3 ovarian): 0.969 µM
TGI (OVCAR-3 ovarian): > 100 µM
